Experimental data: patent US9273028B2, “Heterocyclic tyrosine kinase inhibitors” (Biogen MA Inc., priority 2010, dated 2016)
pIC50: −log10 of the molar value.

Target: T1, BTK (Homo sapiens, UniProt Q06187)
T1 construct: purchased Upstate 14-552
Assay: In vitro BTK kinase assay (BTK-POLYGAT-LS)
Format: biochemical
Settings: IC50 (10 uM ATP)
Method: In vitro BTK Kinase Assay
The purpose of the BTK in vitro assay is to determine compound potency against BTK through the measurement of IC50. […] For a typical assay, a 24 μL aliquot of a ATP/peptide master mix (final concentration; ATP 10 μM, polyGAT 100 nM) in kinase buffer (10 mM Tris-HCl pH 7.5, 10 mM MgCl2, 200 μM Na3PO4, 5 mM DTT, 0.01% Triton X-100, and 0.2 mg/ml casein) is added to each well. […] The assay is incubated for 30 minutes before being stopped with 28 μL of a 50 mM EDTA solution. […] The plate is covered and incubated for 45 minutes at room temperature.

T1 sequence (Q06187 whole entry): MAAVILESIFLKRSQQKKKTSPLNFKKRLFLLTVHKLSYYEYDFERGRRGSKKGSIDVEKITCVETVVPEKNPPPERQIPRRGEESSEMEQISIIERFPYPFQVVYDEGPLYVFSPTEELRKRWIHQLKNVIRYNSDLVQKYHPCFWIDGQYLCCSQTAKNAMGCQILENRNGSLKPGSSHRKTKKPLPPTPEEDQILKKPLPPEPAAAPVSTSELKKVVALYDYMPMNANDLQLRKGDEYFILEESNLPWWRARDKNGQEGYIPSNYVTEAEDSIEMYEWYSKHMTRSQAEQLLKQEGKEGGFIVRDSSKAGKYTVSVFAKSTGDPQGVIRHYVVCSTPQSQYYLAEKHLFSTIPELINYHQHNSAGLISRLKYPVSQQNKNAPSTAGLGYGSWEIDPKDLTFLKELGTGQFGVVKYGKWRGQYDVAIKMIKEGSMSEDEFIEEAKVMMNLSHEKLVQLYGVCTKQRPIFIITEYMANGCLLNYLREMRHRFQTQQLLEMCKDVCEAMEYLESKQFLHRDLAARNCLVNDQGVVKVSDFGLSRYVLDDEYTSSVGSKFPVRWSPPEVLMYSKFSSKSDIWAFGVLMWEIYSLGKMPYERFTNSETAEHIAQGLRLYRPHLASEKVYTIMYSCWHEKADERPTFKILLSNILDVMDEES

Compound	pIC50
CN1CCN(C(=O)c2ccc(-c3cnc4[nH]ccc4c3N[C@H]3CCCN(C(=O)CNc4cc(Cl)cc(Cl)c4)C3)cc2)CC1 [Compound 1]	> 7.00
O=C(CNc1cc(Cl)cc(Cl)c1)N1CCC[C@@H](Nc2c(-c3ccc(C(=O)N4CCC(O)CC4)cc3)cnc3[nH]ccc23)C1 [Compound 2]	> 7.00
O=C(CNc1cc(Cl)cc(Cl)c1)N1CCC[C@@H](Nc2c(-c3ccc(C(=O)N4CCOCC4)cc3)cnc3[nH]ccc23)C1 [Compound 3]	> 7.00
CCC1C(Nc2ncnc3[nH]ncc23)CCCN1C(=O)CNc1cc(F)cc(Cl)c1 (stereo not shown) [Compound 4]	> 7.00
CCC1C(Nc2ncnc(N)c2F)CCCN1C(=O)CNc1cc(F)cc(Cl)c1 (stereo not shown) [Compound 5]	5.00 to 6.00
O=C(CNc1cc(Cl)cc(Cl)c1)N1CCC[C@@H](Nc2ncnc3[nH]cc(F)c23)C1 [Compound 6]	6.00 to 7.00
CCC1C(Nc2ncnc3[nH]ccc23)CCCN1C(=O)CNc1cc(F)cc(Cl)c1 (stereo not shown) [Compound 7]	6.00 to 7.00
Nc1ncnc(N[C@@H]2CCCN(C(=O)CNc3cc(Cl)cc(Cl)c3)C2)c1Cl [Compound 8]	5.00 to 6.00
CN(c1ncnc2[nH]ccc12)C1CCCN(C(=O)CNc2cc(F)cc(Cl)c2)C1C(F)(F)F (stereo not shown) [Compound 9]	> 7.00
O=C(CNc1cc(Cl)cc(Cl)c1)N1CCC[C@@H](Nc2ncnc3[nH]cnc23)C1 [Compound 10]	5.00 to 6.00
O=C(CNc1cc(Cl)cc(Cl)c1)N1CCC[C@H](Nc2ncnc3[nH]ccc23)[C@@H]1C(F)(F)F [Compound 11]	6.00 to 7.00
O=C(CNc1cc(Cl)cc(Cl)c1)N1CCC[C@@H](Nc2ncnc3[nH]ccc23)[C@H]1C(F)(F)F [Compound 12]	> 7.00
CN(c1ncnc2[nH]ccc12)C1CCCN(C(=O)CNc2cc(Cl)cc(C(F)(F)F)c2)C1C(F)(F)F (stereo not shown) [Compound 13]	> 7.00
CN(c1ncnc2[nH]ccc12)C1CCCN(C(=O)CNc2cc(Cl)cc(Cl)c2)C1C(F)(F)F (stereo not shown) [Compound 14]	> 7.00
CN(c1ncnc2[nH]ccc12)C1CCCN(C(=O)CNc2ccccc2)C1C(F)(F)F (stereo not shown) [Compound 15]	> 7.00
CN(c1ncnc2[nH]ccc12)C1CCCN(C(=O)CNc2cccc(Cl)c2)C1C(F)(F)F (stereo not shown) [Compound 16]	> 7.00
O=C(CNc1cc(Cl)cc(C(F)(F)F)c1)N1CCCC(Nc2ncnc3[nH]ccc23)C1C(F)(F)F (stereo not shown) [Compound 17]	> 7.00
O=C(CNc1ccccc1)N1CCCC(Nc2ncnc3[nH]ccc23)C1C(F)(F)F (stereo not shown) [Compound 18]	6.00 to 7.00
O=C(CNc1cc(Cl)cc(Cl)c1)N1CCCC(Nc2ncnc3[nH]ccc23)C1C(F)(F)F (stereo not shown) [Compound 19]	> 7.00
O=C(CNc1cccc(Cl)c1)N1CCCC(Nc2ncnc3[nH]ccc23)C1C(F)(F)F (stereo not shown) [Compound 20]	> 7.00
C[C@H]1[C@@H](Nc2ncnc3[nH]ncc23)CCCN1C(=O)CNc1ccccc1S(=O)(=O)N1CCCCC1 [Compound 21]	5.00 to 6.00
C[C@@H]1[C@H](Nc2ncnc3[nH]ncc23)CCCN1C(=O)CNc1ccccc1S(=O)(=O)N1CCCCC1 [Compound 22]	> 7.00
C[C@@H]1[C@@H](Nc2ncnc3[nH]ncc23)CCCN1C(=O)CNc1cc(F)cc(Cl)c1 [Compound 24]	5.00 to 6.00
C[C@H]1[C@H](Nc2ncnc3[nH]ncc23)CCCN1C(=O)CNc1cc(F)cc(Cl)c1 [Compound 26]	6.00 to 7.00
C[C@H]1[C@@H](Nc2ncnc3[nH]ncc23)CCCN1C(=O)CNc1cc(F)cc(Cl)c1 [Compound 27]	6.00 to 7.00

Compound	pIC50
C[C@@H]1[C@@H](Nc2ncnc3[nH]ncc23)CCCN1C(=O)CNc1cc(Cl)cc(Cl)c1 [Compound 28]	6.00 to 7.00
C[C@H]1[C@H](Nc2ncnc3[nH]ncc23)CCCN1C(=O)CNc1cc(Cl)cc(Cl)c1 [Compound 30]	6.00 to 7.00
C[C@H]1[C@@H](Nc2ncnc3[nH]ncc23)CCCN1C(=O)CNc1cc(Cl)cc(Cl)c1 [Compound 31]	> 7.00
O=C(CNc1cc(Cl)cc(Cl)c1)N1CCCC(Nc2ncnc3[nH]ccc23)C1C1CCCC1 (stereo not shown) [Compound 33]	> 7.00
CC(C)C1C(Nc2ncnc3[nH]ccc23)CCCN1C(=O)CNc1cc(Cl)cc(Cl)c1 (stereo not shown) [Compound 34]	> 7.00
O=C(CNc1cc(Cl)cc(Cl)c1)N1CCC[C@@H](N(CCO)c2ncnc3[nH]ccc23)C1 [Compound 35]	> 7.00
O=C(O)CN(c1ncnc2[nH]ccc12)[C@@H]1CCCN(C(=O)CNc2cc(Cl)cc(Cl)c2)C1 [Compound 36]	5.00 to 6.00
CN(C)C(=O)CN(c1ncnc2[nH]ccc12)[C@@H]1CCCN(C(=O)CNc2cc(Cl)cc(Cl)c2)C1 [Compound 40]	6.00 to 7.00
CCCCC1C(Nc2ncnc3[nH]ccc23)CCCN1C(=O)CNc1cc(Cl)cc(Cl)c1 (stereo not shown) [Compound 41]	6.00 to 7.00
CCC1CC2CCN(C(=O)CNc3cc(Cl)cc(Cl)c3)CC2N1c1ncnc2[nH]ccc12 (stereo not shown) [Compound 42]	> 7.00
O=C(CNc1cc(Cl)cc(Cl)c1)N1CCCC(N(CCO)c2ncnc3[nH]ccc23)C1 (stereo not shown) [Compound 43]	> 7.00
C[C@@H]1C[C@@H]2CCN(C(=O)CNc3cc(Cl)cc(Cl)c3)C[C@@H]2N1c1ncnc2[nH]ccc12 [Compound 46]	> 7.00
C[C@@H]1C[C@H]2CCN(C(=O)CNc3cc(Cl)cc(Cl)c3)C[C@H]2N1c1ncnc2[nH]ccc12 [Compound 47]	> 7.00
CC1C(N(C)c2ncnc(N)c2F)CCCN1C(=O)CNc1cc(Cl)cc(Cl)c1 (stereo not shown) [Compound 49]	> 7.00
O=C(CNc1cc(Cl)cc(Cl)c1)N1CCOCC(Nc2ncnc3[nH]cnc23)C1 (stereo not shown) [Compound 50]	6.00 to 7.00
CC1C(Nc2ncnc3[nH]ccc23)CCCN1C(=O)[C@H](Nc1cc(Cl)cc(Cl)c1)C1CC1 (stereo partly shown) [Compound 51]	6.00 to 7.00
CC1C(Nc2ncnc3[nH]ncc23)CCCN1C(=O)[C@H](Nc1cc(Cl)cc(Cl)c1)C1CC1 (stereo partly shown) [Compound 52]	> 7.00
O=C1C(Nc2cc(F)cc(Cl)c2)CC2CCC(Nc3ncnc4[nH]ccc34)CN12 (stereo not shown) [Compound 53]	5.00 to 6.00
O=C(CNc1cc(Cl)cc(Cl)c1)N1CCCC(N(CCN2CCCC2)c2ncnc3[nH]ccc23)C1 (stereo not shown) [Compound 54]	5.00 to 6.00
CC1C(N(C)c2ncnc3[nH]ncc23)CCCN1C(=O)CNc1cc(Cl)cc(Cl)c1 (stereo not shown) [Compound 55]	> 7.00
C[C@@H](Nc1cc(Cl)cc(Cl)c1)C(=O)N1CCC2CCN(c3ncnc4[nH]ccc34)C2C1 (stereo partly shown) [Compound 56]	> 7.00
CC1C2C(CCN1C(=O)CNc1cc(Cl)cc(Cl)c1)CCN2c1ncnc2[nH]ccc12 (stereo not shown) [Compound 57]	> 7.00
CC1C(Nc2ncnc3[nH]ncc23)CCCN1C(=O)CNc1cc(Cl)cc(C(F)(F)F)c1 (stereo not shown) [Compound 58]	> 7.00
CC1C(Nc2ncnc3[nH]ncc23)CCCN1C(=O)[C@@H](C)Nc1cc(Cl)cc(Cl)c1 (stereo partly shown) [Compound 60]	> 7.00
CCC[C@@H](Nc1cc(Cl)cc(Cl)c1)C(=O)N1CCCC(Nc2ncnc3[nH]ncc23)C1C (stereo partly shown) [Compound 61]	> 7.00

Compound	pIC50
CC1C(Nc2ncnc(N)c2F)CCCN1C(=O)CNc1cc(Cl)cc(Cl)c1 (stereo not shown) [Compound 62]	> 7.00
CC1C(Nc2ncnc3[nH]ncc23)CCCN1C(=O)CNc1ccccc1S(=O)(=O)c1ccccc1 (stereo not shown) [Compound 63]	> 7.00
CCC[C@@H](Nc1cc(Cl)cc(Cl)c1)C(=O)N1CCCC(Nc2ncnc3[nH]ccc23)C1C (stereo partly shown) [Compound 64]	> 7.00
CC[C@@H](Nc1cc(Cl)cc(Cl)c1)C(=O)N1CCCC(Nc2ncnc3[nH]ncc23)C1C (stereo partly shown) [Compound 65]	> 7.00
CC1C(Nc2ncnc3[nH]ccc23)CCCN1C(=O)CNc1ccccc1S(=O)(=O)N1CCCCC1 (stereo not shown) [Compound 66]	> 7.00
CC1C(Nc2ncnc3[nH]ncc23)CCCN1C(=O)CNc1cc(F)cc(Cl)c1 (stereo not shown) [Compound 68]	> 7.00
CC1C(Nc2ncnc3[nH]ncc23)CCCN1C(=O)CNc1ccccc1S(=O)(=O)C1CCCC1 (stereo not shown) [Compound 69]	> 7.00
CC1C(Nc2ncnc3[nH]ncc23)CCCN1C(=O)CNc1ccccc1S(=O)(=O)N1CCCC1 (stereo not shown) [Compound 70]	> 7.00
CC1C(Nc2ncnc3[nH]ccc23)CCCN1C(=O)CNc1cc(F)cc(Cl)c1 (stereo not shown) [Compound 71]	> 7.00
CC[C@@H](Nc1cc(Cl)cc(Cl)c1)C(=O)N1CCCC(Nc2ncnc3[nH]ccc23)C1C (stereo partly shown) [Compound 72]	> 7.00
CC1C(Nc2ncnc3[nH]ccc23)CCCN1C(=O)CNc1ccccc1S(=O)(=O)C1CCCC1 (stereo not shown) [Compound 73]	> 7.00
CC1CC2CCN(C(=O)CNc3cc(Cl)cc(Cl)c3)CC2N1c1ncnc2[nH]ccc12 (stereo not shown) [Compound 74]	> 7.00
CC1C(Nc2ncnc3[nH]ccc23)CCCN1C(=O)CNc1ccccc1S(=O)(=O)c1ccccc1 (stereo not shown) [Compound 75]	> 7.00
O=C(CNc1ccc(F)c(Cl)c1)N1CCC2CCN(c3ncnc4[nH]ccc34)C2C1 (stereo not shown) [Compound 77]	> 7.00
CC1C(Nc2ncnc3[nH]ccc23)CCCN1C(=O)CNc1ccccc1S(=O)(=O)N1CCCC1 (stereo not shown) [Compound 79]	> 7.00
CC1C(Nc2ncnc3[nH]ccc23)CCCN1C(=O)CNc1cc(Cl)cc(C(F)(F)F)c1 (stereo not shown) [Compound 80]	> 7.00
CC1C(Nc2ncnc3[nH]ccc23)CCCN1C(=O)[C@@H](C)Nc1cc(Cl)cc(Cl)c1 (stereo partly shown) [Compound 81]	> 7.00
NC(=O)c1c(N)ncnc1NC1CCCN(C(=O)CNc2cc(Cl)cc(Cl)c2)C1 (stereo not shown) [Compound 82]	< 5.00
CNc1cc(NC2CCCN(C(=O)CNc3cc(Cl)cc(Cl)c3)C2)ncn1 (stereo not shown) [Compound 83]	6.00 to 7.00
CC(C)N(c1ncnc2[nH]ccc12)C1CCCN(C(=O)CNc2cc(Cl)cc(Cl)c2)C1 (stereo not shown) [Compound 84]	6.00 to 7.00
CC(=O)Nc1cc(NC2CCCN(C(=O)CNc3cc(Cl)cc(Cl)c3)C2)ncn1 (stereo not shown) [Compound 85]	5.00 to 6.00
O=C(CNc1cc(Cl)cc(Cl)c1)N1CCCC(N(CCN2CCOCC2)c2ncnc3[nH]ccc23)C1 (stereo not shown) [Compound 86]	6.00 to 7.00
CC1CC(N(C)c2ncnc3[nH]ncc23)CN(C(=O)CNc2cc(Cl)cc(Cl)c2)C1 (stereo not shown) [Compound 87]	> 7.00
